Source: paper PMC12195707, “Evaluation of Antitumoral Activity in a 3D Cell Model of a Src Inhibitor Prodrug for Glioblastoma Treatment” (Pharmaceutics, 2025)
Values joined by “and” are separate entries in the source; they are usually repeats but may differ in a detail not shown here. Identical values can stand only once.

How the values were obtained:
[1] = Stability/release in cell culture medium DMEM (10% FBS); type: in vitro ADME; details: 37 °C; for half-life: bovine, DMEM plus 10% FBS (cell culture medium), read-out: Half-life t1/2 (converted)
[2] = in vitro; details: PAMPA, pH 7.4
Method: After being first dissolved in DMSO, the compounds were diluted 1:1 v/v using phosphate buffer (PBS 10 mM, pH 7.4). […] The gastrointestinal (GI) and blood–brain barrier (BBB) phospholipidic bilayers were mimicked by covering each well of the filter plate with either a 10%w/v CHCl3/dodecane brain polar lipid solution or a 1%w/v L-α-phosphatidylcholine solution (PC) in dodecane. After placing a DMSO/PBS 1:1v/v combination solution in the acceptor plate, the sandwich was gently shaken and incubated at room temperature for four hours. Samples were collected from the upper and bottom plates at the end time point, and the LC-UV/MS method was used for analysis. As previously reported, the apparent permeability (Papp cm/s × 10^−6) was quantified.

[3] = system: U251 glioblastoma cell line; experiment: 2D cell viability assay (PrestoBlue), U251; type: cell-based; details: Homo sapiens, U-251, 72 h, U251 2D culture
Method: (§1) The human glioblastoma cell line U87 MG (U87) was originally isolated from a patient with a malignant glioma (ECACC). The human glioblastoma cell line U251 MG (U251) was derived from a patient with a malignant glioblastoma (ECACC). DMEM high-glucose growth medium (Euroclone, Milan, Italy), supplemented with 10% FBS (Euroclone), 200 mM L-glutamine (Euroclone), 100 IU/mL penicillin, and 100 µg/mL streptomycin (Euroclone) comprised the culture medium used for cell propagation at a controlled temperature and atmosphere, at 37 °C, […], and 5% CO2. Cell lines underwent regular testing for mycoplasma using the PCR method and identity verification was performed using DNA profiling.
(§2) For the treatment of 2D cultures, U87 and U251 cell lines were initially seeded at a density of 2.5 × 10^4 cells/mL in a 24 multiwell with a complete DMEM high-glucose growth medium. The viability test was started 24 h after cell plating and performed for 72 h. According to the experimental plan, the tests were performed in the presence of a complete DMEM high-glucose growth medium or, to avoid the serum-dependent degradation of prodrug, in an FBS-free DMEM high-glucose growth medium that was supplemented with 200 mM L-glutamine, 100 IU/mL penicillin, and 100 µg/mL streptomycin. Cell viability in 2D and 3D models was assessed using the cell-permeable resazurin-based solution PrestoBlue (Thermo Fisher, Waltham, MA, USA). After incubating the cells in a 1:10 ratio with the colorimetric reagent for two hours in the dark, the spectrophotometer readings at 570 and 600 nm were utilized as a relative indicator for cell viability.
(§3) Data were imported into Excel or GraphPad Prism software (version 6.01) and elaborated as the mean ± standard deviation (SD) of at least three independent experiments. The calculation of IC50 values with 95% confidence intervals was performed in GraphPad Prism software using a parameter nonlinear fit of the log-dose vs. response elaboration of data. The p value of the log-dose vs. response was calculated with a two-tailed Mann–Whitney test for unpaired data. The statistical significance between two series of measures, including stability and PAMPA (both GI and BBB) experiments, was calculated with the parametric Student t test, considering a significant p value lower than 0.05.

[4] = system: U87 glioblastoma cell line; experiment: 2D cell viability assay (PrestoBlue), U87; type: cell-based; details: Homo sapiens, 72 h, U87 2D culture
Method: as §1, §2, §3

[5] = system: U251 3D-bioprinted structures; experiment: Viability assay in 3D-bioprinted U251 cell model (PrestoBlue); type: cell-based; details: Homo sapiens, U-251, 72 h, bioprinted U251 3D model
Method: (§4) A solution of 2% alginate and 8% gelatin (bio-ink) made up the hydrogel utilized for bioprinting. After 15 min of UV light exposure, the powders were dissolved in sterile DPBS in a magnetic stirrer set at 50 °C with laminar flow. After being made, bioink was put in sterile syringes and kept at 4 °C until it was needed. Bioink had been equilibrated at 37 °C prior to the bioprinting process. After that, 2.7 mL of bioink was added to 20 × 10^6 cells that had been resuspended in 300 µL of growth media. Lastly, a disposable cartridge containing a cell/hydrogel suspension was equilibrated in a temperature-controlled printhead for 30 min at 29 °C. The BIO-X bioprinter (Cellink, Gothenburg, Sweden) was used to print in a 12-well plate at a speed of 5 mm/s and a dispensing pressure of 50 kPa, while the temperature was adjusted to 18 °C. Before adding culture media, three-dimensional constructs were crosslinked using CaCl2 for ten minutes and BaCl2 for three minutes. After 8 days, 3D structures, after evaluating cell viability, were treated for 72 h with SI306 and SI306-PD2 at selected concentrations and in different conditions: in complete DMEM high-glucose growth medium and DMEM-high glucose growth medium without FBS (w/o). Fiji ImageJ software (version 2.16.0/1.54p, https://imagej.net/software/fiji/downloads, accessed on 20 May 2025) was used to perform measurements of 3D models’ diameters on images acquired using phase contrast microscopy. A hemocytometer was used to set a scale for normalized measures and to convert real optic distance in pixels. At least five different optical fields were acquired, and the diameter was calculated for at least 100 different cell aggregates in each experimental point.
For the treatment of 2D cultures, U87 and U251 cell lines were initially seeded at a density of 2.5 × 10^4 cells/mL in a 24 multiwell with a complete DMEM high-glucose growth medium. […] Cell viability in 2D and 3D models was assessed using the cell-permeable resazurin-based solution PrestoBlue (Thermo Fisher, Waltham, MA, USA). After incubating the cells in a 1:10 ratio with the colorimetric reagent for two hours in the dark, the spectrophotometer readings at 570 and 600 nm were utilized as a relative indicator for cell viability.
as §3, with “The calculation of IC50 values with 95% confidence intervals was performed in GraphPad Prism software using a parameter nonlinear fit of the log-dose vs. response elaboration of data.” left out

[6] = system: U251 spheroids; experiment: Diameter of U251 spheroids in bioprinted scaffold; type: cell-based, human; details: 10 µM, 72 h, FBS-free DMEM
Method: as §4

[7] = system: U87 GBM cells; set-up: method as in PMID 12564978; details: cited from earlier work
[8] = system: CAS-1 GBM cells; set-up: method as in PMID 12564978; details: CAS-1 cells; cited from earlier work
[9] = molecular target: Src; set-up: method as in PMID 28650650; details: cited from earlier work
[10] = system: U87MG xenograft; set-up: method as in PMID 28650650; details: nude mice, in combination with radiotherapy; cited from earlier work

## O=C(OCCOCCO)N(c1cccc(Br)c1)c1nc(SCCN2CCOCC2)nc2c1cnn2CC(Cl)c1ccccc1 (stereo not shown) [SI306-PD2, 2-(2-Hydroxyethoxy)ethyl (3-Bromophenyl)(1-(2-chloro-2-phenylethyl)-6-((2-morpholinoethyl)thio)-1H-pyrazolo[3,4-d]pyrimidin-4-yl)carbamate]
[1]; time 0 h
  Stability (% unmodified compound): 100.02 ± 0.80%
[1]; time 0.083 h
  Stability (% unmodified compound): 100.22 ± 0.10%
[1]; time 0.25 h
  Stability (% unmodified compound): 103.59 ± 2.97%
[1]; time 0.5 h
  Stability (% unmodified compound): 98.01 ± 3.40%
[1]; time 1 h
  Stability (% unmodified compound): 91.48% and 91.48 ± 0.86%
[1]; time 2 h
  Stability (% unmodified compound): 85.45 ± 3.20%
[1]; time 4 h
  Stability (% unmodified compound): 81.41 ± 3.94%
[1]; time 24 h
  Stability (% unmodified compound): 40.07% and 40.07 ± 1.70%
[1]
  half-life: 18.1 h
[2]
  Papp at 4 h: 19.5 ± 0.46 ×10⁻⁶ cm/s
[3]; 10% FBS-DMEM
  IC50: 1290 nM
[3]; FBS-free DMEM (w/o)
  IC50: 90 nM
[4]; 10% FBS-DMEM
  IC50: 1620 nM
[4]; FBS-free DMEM (w/o)
  IC50: 290 nM
[5]; 10% FBS-DMEM
  IC50: 10000 nM
[5]; FBS-free DMEM (w/o)
  IC50: 5110 nM
[6]
  Mean diameter of U251 spheroids vs. control: significant difference in the mean diameter of the treated U251 spheroids with respect to the control
  Spheroid diameter vs. SI306-treated cells: significant reduction in spheroid diameter with respect to SI306-treated cells
[7]
  Activity in GBM cells: active
[8]
  Activity in GBM cells: active

## ClC(Cn1ncc2c(Nc3cccc(Br)c3)nc(SCCN3CCOCC3)nc21)c1ccccc1 (stereo not shown) [SI306, N-(3-bromophenyl)-1-(2-chloro-2-phenylethyl)-6-((2-morpholinoethyl)thio)-1H-pyrazolo[3,4-d]pyrimidin-4-amine]
[1]; time 0 h
  Stability (% unmodified compound): 100.11 ± 0.91%
[1]; time 0.083 h
  Stability (% unmodified compound): 101.97 ± 2.32%
[1]; time 0.25 h
  Stability (% unmodified compound): 103.96 ± 1.68%
[1]; time 0.5 h
  Stability (% unmodified compound): 99.17 ± 1.10%
[1]; time 1 h
  Stability (% unmodified compound): 98.52 ± 3.69%
[1]; time 2 h
  Stability (% unmodified compound): 98.64 ± 1.79%
[1]; time 4 h
  Stability (% unmodified compound): 93.56 ± 1.79 %
[1]; time 6 h
  Stability (% unmodified compound): 92.30 ± 0.84 %
[1]; time 24 h
  Stability (% unmodified compound): 87.39% and 87.39 ± 0.41 %
[1]
  half-life: > 100 h
[2]
  Papp at 4 h: 8.44 ± 1.03 ×10⁻⁶ cm/s
[3]; 10% FBS-DMEM
  IC50: 2620 nM
[3]; FBS-free DMEM (w/o)
  IC50: 230 nM
[4]; 10% FBS-DMEM
  IC50: 3070 nM
[4]; FBS-free DMEM (w/o)
  IC50: 270 nM
[5]; 10% FBS-DMEM
  IC50: 14400 nM
[5]; FBS-free DMEM (w/o)
  IC50: 11600 nM
[6]
  Mean diameter of U251 spheroids vs. control: significant difference in the mean diameter of the treated U251 spheroids with respect to the control
[9]
  Ki: 130 nM
[10]
  U87MG xenograft growth: strongly arrested U87MG xenograft growth
